{"source": "patent US10537541B2", "about": "“Treatment of focal segmental glomerular sclerosis (FSGS) using therapeutically effective oral doses of 10-nitro-9(E)-octadec-9-enoic acid” (Complexa, Inc., priority 2015, dated 2020)", "key": {"[1]": {"assay": "Pharmacokinetic interaction study with pravastatin and Vytorin in healthy males: PK", "conditions": "Vytorin 10 mg/20 mg, Day 12 with 10-nitro-9(E)-octadec-9-enoic acid 150 mg daily versus Day 2 alone"}, "[2]": {"tested_on": "healthy male subjects", "assay": "Pharmacokinetic interaction study in healthy males: safety and tolerability", "assay_type": "in vivo, human", "conditions": "pravastatin 40 mg, 10 healthy males", "protocol": "Safety and tolerability was evaluated throughout the study. The timing of discharge was determined by the Investigator or designee based on safety and tolerability assessment. On dosing days, subjects remained in the research unit for a minimum of 1 h after dosing prior to discharge. On Day 4, on the first day of 10-nitro-9(E)-octadec-9-enoic acid dosing, subjects remained in the unit for 4 to 6 h after dosing prior to discharge to assess safety and tolerability.\nSafety and PK assessments were evaluated throughout the study. During the in-house portion of the study, urine was collected over the 24-h period on Day 2 and Day 12.\nSafety was evaluated by physical examinations; adverse events (AEs); vital signs (blood pressure, heart rate, respiratory rate); clinical laboratory values (hematology, biochemistry, and urinalysis), specifically, serum Mg and CPK and electrocardiograms (ECGs).\nTriplicate ECGs were obtained just prior to the start of dosing on Day 1 and single ECGs were obtained at all other time points. The average of the 3 ECG interval measurements at the pre-dose time point was considered as baseline. All 12-Lead ECGs were obtained after the subject has rested in a fully supine position for at least 10 minutes. There were no clinically significant abnormalities reported on any electrocardiogram (ECG) parameter. There were no QT/QTcF interval prolongations observed during the study."}, "[3]": {"tested_on": "deoxycorticosterone acetate (DOCA)/salt-induced model of FSGS", "assay": "DOCA salt study: glomerular filtration rate (inulin)", "assay_type": "in vivo, mice (129/sv strain)", "conditions": "DOCA/salt mice; enalapril 20 mg/kg/d in drinking water, 4 week timepoint", "protocol": "Induction of model: Male mice (129/sv strain) were purchased from Taconic Labs. The animals were uninephrectomized (Unx) at 6 weeks of age by the vendor and shipped one week after surgery. At 2 weeks post Unx, a DOCA or placebo pellet (21-day release pellets, 50 mg/pellet, Innovative Research of America, Sarasota, Fla.) was implanted s.c. All mice were then placed on a semisynthetic diet which contained a moderate fat content and a low phytoestrogen/anti-oxidant level, which approximates a normal human diet (4). A second DOCA or placebo pellet was implanted three weeks later. […] One percent NaCl in tap water was given to each group except the sham control group. Body weight was measured weekly, and doses were readjusted based on the current body weight. Urine and blood samples were collected prior to treatment and at week 2 and 4 of treatment. Mice were terminated at week 4. Data is presented as the mean+SEM for the number of animals listed in each group. Glomerular Filtration Rate: Glomerular filtration rate (GFR) was performed at the 4 week timepoint using a FIT-GFR test kit for inulin according to manufacturer's instructions (BioPal, Worcester, Mass.). […] Serum was isolated and quantified by an inulin ELISA. Inulin serum clearance was determined by nonlinear regression using a one phase exponential decay formula according to manufacturer's instructions."}, "[4]": {"tested_on": "deoxycorticosterone acetate (DOCA)/salt-induced model of FSGS", "assay": "DOCA salt study: RT-PCR analysis of kidney gene expression", "assay_type": "in vivo, mice (129/sv strain)", "conditions": "DOCA/salt mice kidney", "protocol": "(§1) Induction of model: Male mice (129/sv strain) were purchased from Taconic Labs. The animals were uninephrectomized (Unx) at 6 weeks of age by the vendor and shipped one week after surgery. At 2 weeks post Unx, a DOCA or placebo pellet (21-day release pellets, 50 mg/pellet, Innovative Research of America, Sarasota, Fla.) was implanted s.c. All mice were then placed on a semisynthetic diet which contained a moderate fat content and a low phytoestrogen/anti-oxidant level, which approximates a normal human diet (4). A second DOCA or placebo pellet was implanted three weeks later.\n(§2) Treatment: Mice were treated with placebo, 10-nitro-9(E)-octadec-9-enoic acid at a dose of 2.5 and 12.5 mg/kg, or enalapril (standard of care) for 4 weeks by oral gavage starting 2 weeks after the first DOCA implantation. One percent NaCl in tap water was given to each group except the sham control group. Body weight was measured weekly, and doses were readjusted based on the current body weight. Urine and blood samples were collected prior to treatment and at week 2 and 4 of treatment. Mice were terminated at week 4. Data is presented as the mean+SEM for the number of animals listed in each group.\nRT-PCR Analysis of Gene Expression: A slice of kidney from each mouse was placed in Trizol solution (Invitrogen) immediately after harvesting and stored at −80° C. until analysis. Tissues were homogenized using a bead mill in 0.5 ml of Trizol solution and total RNA was extracted with chloroform (Sigma) and purified using standard RNeasy mini kit (Qiagen), with on column DNase 1 (Qiagen) digestion to avoid non-specific fluorescence emission derived from the recognition of contaminating genomic DNA by the probe, according to manufacturer's recommendation. RNA samples were eluted in 30 μl of nuclease-free water and quantified using a Nanodrop. cDNA was generated from 2 μg of RNA by using Clontech Sprint PowerScript reagents according to manufacturer's protocol. Fluorogenic probes specific for genes assayed in the report were purchased from Applied Biosystems. PCR amplification and analysis of PCR reaction were performed and monitored using an ABI Prism 7900HT Sequence Detection System (TaqMan, Perkin-Elmer Applied Biosystem). Data analysis was carried out by using the Sequence Detection Systems v2.3 program (Applied Biosystems). For each cDNA sample the Ct value of each target sequence was normalized to reference gene (Ribosomal RNA-18S), and shown as fold changes to control group. Statistical analyses for gene expression data was performed using a two-tailed Student's t-test."}, "[5]": {"tested_on": "deoxycorticosterone acetate (DOCA)/salt-induced model of FSGS", "assay": "DOCA salt study: histological assessment of kidney", "assay_type": "in vivo, mice (129/sv strain)", "conditions": "DOCA/salt mice; enalapril 20 mg/kg/d in drinking water, 4 weeks", "protocol": "as §1, §2\nHistological Assessment: Formalin fixed, paraffin embedded kidneys were sectioned at 3 microns and stained with hematoxylin and eosin (H&E), periodic acid-Schiff (PAS) and Masson's Trichrome for histological analysis. Slides were blindly evaluated by an experienced pathology investigator. Glomerular and tubular pathology, interstitial inflammation and interstitial fibrosis were semi-quantitatively scored on a scale of 0-4 as follows: 0=normal; 1=mild; 2=moderate; 3=marked; 4=severe.\nGlomerular hypertrophy was evaluated by measuring glomerular area and expressed as a mean value of 50 glomeruli per kidney. Glomerular hypertrophy is an important marker for diabetic and hypertensive-mediated chronic kidney disease. […] This finding is consistent with unchanged gene expression profile for podocyte markers (Table 2), and seems reasonable given that the disease was relatively modest."}, "[6]": {"tested_on": "deoxycorticosterone acetate (DOCA)/salt-induced model of FSGS", "assay": "DOCA/salt-induced mouse model of FSGS: renoprotection, body weight, blood pressure, organ/body weight ratios", "assay_type": "in vivo, mice (129/sv strain)", "conditions": "DOCA/salt mice, 4 weeks", "protocol": "10-nitro-9(E)-octadec-9-enoic acid, given orally after onset of renal injury, was evaluated for efficacy in a model for Focal Segmental Glomerular Sclerosis (FSGS) in humans. […] Mice were uni-nephrectomized and, after two weeks, implanted subcutaneously with DOCA (50 mg, 21-day release) or placebo sustained release pellets, with pellet replacement 3 weeks later. All groups, except the sham control group, also received 1% NaCl in tap water. 10-nitro-9(E)-octadec-9-enoic acid (daily oral gavage, 2.5 or 12.5 mg/kg) or enalapril (20 mg/kg/day in drinking water) treatments began 2 weeks after the first DOCA implantation and continued for 4 weeks. Enalapril was included for comparison because it is used as standard of care for FSGS and this is a positive control for the model.\nas §1, §2"}, "[7]": {"tested_on": "deoxycorticosterone acetate (DOCA)/salt-induced model of FSGS", "assay": "DOCA salt study: urinary isoprostane and tetranor-PGDM by LC-MS", "assay_type": "in vivo, mice (129/sv strain)", "conditions": "DOCA/salt mice; end time point", "protocol": "as §1, §2\nIsoprostanes are a unique series of prostaglandin-like compounds formed in vivo via a non-enzymatic mechanism involving the free radical-initiated peroxidation of arachidonic acid. It has been shown that 8-iso-PGF2a (15-F2t-isoprostane) is the isoprostane that correlates best with increasing oxidative stress. Therefore, to assess the effect of treatment on oxidative stress, this isoform was measured using LC-MS. Also measured was tetranor-PGDM, a urinary metabolite of prostaglandin D2. […] On the other hand, elevated tetranor-PGDM was lowered with treatment of 10-nitro-9(E)-octadec-9-enoic acid and enalapril at the end time point (FIG. 18)."}, "[8]": {"tested_on": "deoxycorticosterone acetate (DOCA)/salt-induced model of FSGS", "assay": "DOCA salt study: serum and urine analyses", "assay_type": "in vivo, mice (129/sv strain)", "conditions": "DOCA/salt mice, enalapril 20 mg/kg/d in drinking water", "protocol": "Induction of model: Male mice (129/sv strain) were purchased from Taconic Labs. The animals were uninephrectomized (Unx) at 6 weeks of age by the vendor and shipped one week after surgery. At 2 weeks post Unx, a DOCA or placebo pellet (21-day release pellets, 50 mg/pellet, Innovative Research of America, Sarasota, Fla.) was implanted s.c. All mice were then placed on a semisynthetic diet which contained a moderate fat content and a low phytoestrogen/anti-oxidant level, which approximates a normal human diet (4). A second DOCA or placebo pellet was implanted three weeks later. […] One percent NaCl in tap water was given to each group except the sham control group. Body weight was measured weekly, and doses were readjusted based on the current body weight. Urine and blood samples were collected prior to treatment and at week 2 and 4 of treatment. Mice were terminated at week 4. Data is presented as the mean+SEM for the number of animals listed in each group. Serum and urine analyses: Blood samples were collected from the retro-orbital sinus and samples were separated to serum. Serum and urine creatinine (enzymatic assay), blood urea nitrogen (BUN), and serum cholesterol were measured using a Cobas 400 plus bioanalyzer (Roche Diagnostics, IN). Urine samples were collected for 24 h using metabolic cages. Urine albumin was measured by immunoassay Albuwell M (Exocell Inc., Philadelphia, Pa.). Immuno-ELISA according to manufacturer's instructions was used to measure urine nephrin (Exocell Inc., Philadelphia, Pa.) and MCP-1 (Thermal Scientific, Waltham, Mass.). Kim-1 was measured using the E-90KIM Mouse ELISA Kit (Immunology Consultants Laboratory, Portland, Oreg.). Statistical analyses for serum and urine data was performed using a two-tailed Student's t-test."}, "[9]": {"conditions": "enalapril 20 mg/kg/d, normalized to 18S, fold changes to control group, mean ± SEM"}}, "data": [{"smiles": "CCC(C)(C)C(=O)O[C@H]1C[C@@H](C)C=C2C=C[C@H](C)[C@H](CC[C@@H]3C[C@@H](O)CC(=O)O3)[C@H]21", "note": "[simvastatin]", "values": [{"measurement": "increase of mean AUC(0-t) on co-administration", "setting": "[1]", "result": 25, "unit": "%"}, {"measurement": "increase of mean Cmax on co-administration", "setting": "[1]", "result": 10, "unit": "%"}]}, {"smiles": "CC[C@H](C)C(=O)O[C@H]1C[C@H](O)C=C2C=C[C@H](C)[C@H](CC[C@@H](O)C[C@@H](O)CC(=O)O)[C@H]21", "note": "[pravastatin, reference compound]", "values": [{"measurement": "subjects with abdominal discomfort after administration", "setting": "[2]", "result": 1, "unit": "subject"}]}, {"smiles": "O=C1[C@H](CC[C@H](O)c2ccc(F)cc2)[C@@H](c2ccc(O)cc2)N1c1ccc(F)cc1", "note": "[ezetimibe]", "values": [{"measurement": "decrease of mean AUC(0-t) on co-administration", "setting": "[1]", "result": 5, "unit": "%"}, {"measurement": "decrease of mean Cmax on co-administration", "setting": "[1]", "result": 20, "unit": "%"}]}, {"smiles": "CCOC(=O)[C@H](CCc1ccccc1)N[C@@H](C)C(=O)N1CCC[C@H]1C(=O)O", "note": "[Enalapril, reference compound]", "values": [{"measurement": "GFR (inulin method)", "setting": "[3]", "result": "trend toward an increase"}, {"measurement": "gene expression of MCP-1, osteopontin, collagen III, fibronectin and PAI-1 (mRNA, qRT-PCR)", "setting": "[4]; enalapril 20 mg/kg/d in drinking water, 4 weeks", "result": "neither the high dose 10-nitro-9(E)-octadec-9-enoic acid nor enalapril had an effect"}, {"measurement": "Nephrin gene expression", "setting": "[4]; [9]", "result": "1.091 ± 0.14"}, {"measurement": "Podocin gene expression", "setting": "[4]; [9]", "result": "0.9991 ± 0.095"}, {"measurement": "glomerular hypertrophy (glomerular area, mean of 50 glomeruli per kidney)", "setting": "[5]", "result": "did not have an effect"}, {"measurement": "glomerulosclerosis: average scores and percent of glomerular damage (sclerosis)", "setting": "[5]", "result": "not significantly reduced"}, {"measurement": "blood pressure (mean arterial)", "setting": "[6]; all treatments", "result": "none of the treatments, including enalapril, had a significant effect"}, {"measurement": "kidney/body weight and heart/body ratios", "setting": "[6]; enalapril 20 mg/kg/d in drinking water", "result": "no effect"}, {"measurement": "urinary tetranor-PGDM", "setting": "[7]", "result": "lowered"}, {"measurement": "Kim-1 in urine, relative to the DOCA group", "setting": "[8]", "result": "trended to be decreased"}, {"measurement": "albumin excretion", "setting": "[8]; 4 weeks", "result": "markedly reduced"}, {"measurement": "plasma cholesterol", "setting": "[8]; 4 weeks", "result": "reduced"}, {"measurement": "urinary nephrin levels", "setting": "[8]; 4 weeks", "result": "markedly reduced"}]}]}
